Consider 28 compounds from patent US20230339916A1, “PLANT GROWTH REGULATOR COMPOUNDS” (SYNGENTA CROP PROTECTION AG, priority 2020, published 2023).

For this assay, the system named is Corn leaf discs (variety Multitop). The assay can be described thus: Dark induced senescence of corn leaf. It is filed as in vivo. The following applies: Zea mays, foliar, 192 h; corn leaf discs in the dark, 23° C., 75% humidity, 8 days; 100 μM-0.0001 μM, 0.5% DMSO; image analysis; read-out: IC50 (concentration at which 50% senescence was achieved). The procedure: Corn plants of variety Multitop were grown in a greenhouse with relative 75% humidity and at 23-25° C. for 6 weeks. 1.4 cm diameter leaf discs were placed into 24-well plates containing test compounds in a concentration gradient (100 μM-0.0001 μM) at a final concentration of 0.5% DMSO. Each concentration was tested in 12 replicates. Plates were sealed with seal foil. The foil was pierced to provide gas exchange in each well. The plates were placed into the completely dark climatic chamber. Plates were incubated in the chamber with 75% humidity and at 23° C. for 8 days. On days 0, 5, 6, 7 and 8 photographs were taken of each plate, and image analysis conducted with a macro developed using the ImageJ software. The image analysis was used to determine the concentration at which 50% senescence was achieved (IC50), see Table 3. The lower the value, the higher senescence induction potency.

For `CCOC(=O)/C(=C/OC1C=C(C)C(=O)O1)n1ccc2ccccc21` (stereo not shown) [Compound I-1-Z, ethyl (Z)-2-indol-1-yl-3-[(4-methyl-5-oxo-2H-furan-2-yl)oxy]prop-2-enoate], the IC50 was less than 3000 nM.
The figure for `CCOC(=O)/C(=C/OC1C=C(C)C(=O)O1)n1ccc2cc(C(F)(F)F)ccc21` (stereo not shown) [Compound I-2-Z, ethyl (Z)-3-[(4-methyl-5-oxo-2H-furan-2-yl)oxy]-2-[5-(trifluoromethyl)indol-1-yl]prop-2-enoate] is less than 3000 nM.
For `CCOC(=O)/C(=C/OC1C=C(C)C(=O)O1)n1ccc2cc(F)ccc21` (stereo not shown) [Compound I-3-Z, ethyl (Z)-2-(5-fluoroindol-1-yl)-3-[(4-methyl-5-oxo-2H-furan-2-yl)oxy]prop-2-enoate], the IC50 was less than 3000 nM.
With `CCOC(=O)/C(=C/OC1C=C(C)C(=O)O1)n1ccc2cc(-c3ccccc3)ccc21` (stereo not shown) [Compound I-5-Z, ethyl (Z)-3-[(4-methyl-5-oxo-2H-furan-2-yl)oxy]-2-(5-phenylindol-1-yl)prop-2-enoate], the IC50 is less than 3000 nM.
Next, `CCOC(=O)/C(=C/OC1OC(=O)C(C)=C1C)n1ccc2ccccc21` (stereo not shown) [Compound I-7-Z, ethyl (Z)-3-[(3,4-dimethyl-5-oxo-2H-furan-2-yl)oxy]-2-indol-1-yl-prop-2-enoate]: less than 3000 nM.
The figure for `CCOC(=O)/C(=C/OC1OC(=O)C(C)=C1C)n1ccc2cc(C(F)(F)F)ccc21` (stereo not shown) [Compound I-8-Z, ethyl (Z)-3-[(3,4-dimethyl-5-oxo-2H-furan-2-yl)oxy]-2-[5-(trifluoromethyl)indol-1-yl]prop-2-enoate] is less than 3000 nM; for `CCOC(=O)/C(=C/OC1OC(=O)C(C)=C1C)n1ccc2cc(F)ccc21` (stereo not shown) [Compound I-9-Z, ethyl (Z)-3-[(3,4-dimethyl-5-oxo-2H-furan-2-yl)oxy]-2-(5-fluoroindol-1-yl)prop-2-enoate] it is less than 3000 nM; for `CCOC(=O)/C(=C/OC1OC(=O)C(C)=C1C)n1ccc2cc(-c3ccccc3)ccc21` (stereo not shown) [Compound I-11-Z, ethyl (Z)-3-[(3,4-dimethyl-5-oxo-2H-furan-2-yl)oxy]-2-(5-phenylindol-1-yl)prop-2-enoate] it is less than 3000 nM.
Regarding `CCOC(=O)/C(=C/OC1C=C(C)C(=O)O1)n1cc(C#N)c2ccccc21` (stereo not shown) [Compound I-25-Z, ethyl (Z)-2-(3-cyanoindol-1-yl)-3-[(4-methyl-5-oxo-2H-furan-2-yl)oxy]prop-2-enoate], the IC50 is less than 3000 nM.
Next, `CCOC(=O)/C(=C/OC1OC(=O)C(C)=C1C)n1cc(C#N)c2ccccc21` (stereo not shown) [Compound I-26-Z, ethyl (Z)-2-(3-cyanoindol-1-yl)-3-[(3,4-dimethyl-5-oxo-2H-furan-2-yl)oxy]prop-2-enoate]: less than 3000 nM; `CCOC(=O)/C(=C/OC1C=C(C)C(=O)O1)n1cc(C)c2ccccc21` (stereo not shown) [Compound I-27-Z, ethyl (Z)-2-(3-methylindol-1-yl)-3-[(4-methyl-5-oxo-2H-furan-2-yl)oxy]prop-2-enoate]: less than 3000 nM.
Next, `CCOC(=O)/C(=C/OC1OC(=O)C(C)=C1C)n1cc(C)c2ccccc21` (stereo not shown) [Compound I-28-Z, ethyl (Z)-3-[(3,4-dimethyl-5-oxo-2H-furan-2-yl)oxy]-2-(3-methylindol-1-yl)prop-2-enoate]: less than 3000 nM; `CCOC(=O)/C(=C/OC1C=C(C)C(=O)O1)n1c(C)c(C)c2ccccc21` (stereo not shown) [Compound I-29-Z, ethyl (Z)-2-(2,3-dimethylindol-1-yl)-3-[(4-methyl-5-oxo-2H-furan-2-yl)oxy]prop-2-enoate]: less than 3000 nM; `CCOC(=O)/C(=C/OC1OC(=O)C(C)=C1C)n1c(C)c(C)c2ccccc21` (stereo not shown) [Compound I-30-Z, ethyl (Z)-2-(2,3-dimethylindol-1-yl)-3-[(3,4-dimethyl-5-oxo-2H-furan-2-yl)oxy]prop-2-enoate]: less than 3000 nM.
Consider `CCOC(=O)/C(=C/OC1C=C(C)C(=O)O1)n1nnc2ccccc21` (stereo not shown) [Compound I-31-Z, ethyl (Z)-2-(benzotriazol-1-yl)-3-[(4-methyl-5-oxo-2H-furan-2-yl)oxy]prop-2-enoate], for which the IC50 was less than 3000 nM.
As for `CNC(=O)/C(=C\OC1C=C(C)C(=O)O1)n1nnc2ccccc21` (stereo not shown) [Compound I-33-E, (E)-2-(benzotriazol-1-yl)-N-methyl-3-[(4-methyl-5-oxo-2H-furan-2-yl)oxy]prop-2-enamide], the IC50 is less than 3000 nM.
Next, `CC1=CC(O/C=C(/C(=O)N(C)C)n2nnc3ccccc32)OC1=O` (stereo not shown) [Compound I-34-Z, (Z)-2-(benzotriazol-1-yl)-N,N-dimethyl-3-[(4-methyl-5-oxo-2H-furan-2-yl)oxy]prop-2-enamide]: less than 3000 nM; `CCOC(=O)/C(=C/OC1OC(=O)C(C)=C1C)n1nnc2ccccc21` (stereo not shown) [Compound I-35-Z, ethyl (Z)-2-(benzotriazol-1-yl)-3-[(3,4-dimethyl-5-oxo-2H-furan-2-yl)oxy]prop-2-enoate]: less than 3000 nM.
Next, `CNC(=O)/C(=C/OC1OC(=O)C(C)=C1C)n1nnc2ccccc21` (stereo not shown) [Compound I-37-Z, (Z)-2-(benzotriazol-1-yl)-3-[(3,4-dimethyl-5-oxo-2H-furan-2-yl)oxy]-N-methyl-prop-2-enamide]: less than 3000 nM; `CCOC(=O)/C(=C/OC1C=C(C)C(=O)O1)n1ncc2ccccc21` (stereo not shown) [Compound I-42-Z, ethyl (Z)-2-indazol-1-yl-3-[(4-methyl-5-oxo-2H-furan-2-yl)oxy]prop-2-enoate]: less than 3000 nM.
In the case of `CC1=CC(O/C=C(/C#N)n2ncc3ccccc32)OC1=O` (stereo not shown) [Compound I-43-Z, (Z)-2-indazol-1-yl-3-[(4-methyl-5-oxo-2H-furan-2-yl)oxy]prop-2-enenitrile], the IC50 was less than 3000 nM.
The figure for `CCOC(=O)/C(=C/OC1OC(=O)C(C)=C1C)n1ncc2ccccc21` (stereo not shown) [Compound I-46-Z, ethyl (Z)-3-[(3,4-dimethyl-5-oxo-2H-furan-2-yl)oxy]-2-indazol-1-yl-prop-2-enoate] is less than 3000 nM; for `CC1=C(C)C(O/C=C(\C#N)n2ncc3ccccc32)OC1=O` (stereo not shown) [Compound I-47-E, (E)-3-[(3,4-dimethyl-5-oxo-2H-furan-2-yl)oxy]-2-indazol-1-yl-prop-2-enenitrile] it is less than 3000 nM.
Take `CC1=C(C)C(O/C=C(/C#N)n2ncc3ccccc32)OC1=O` (stereo not shown) [Compound I-47-Z, (Z)-3-[(3,4-dimethyl-5-oxo-2H-furan-2-yl)oxy]-2-indazol-1-yl-prop-2-enenitrile]: the IC50 is less than 3000 nM.
With `CCOC(=O)/C(=C/OC1C=C(C)C(=O)O1)n1nc(F)c2ccccc21` (stereo not shown) [Compound I-50-Z, ethyl (Z)-2-(3-fluoroindazol-1-yl)-3-[(4-methyl-5-oxo-2H-furan-2-yl)oxy]prop-2-enoate], the IC50 is less than 3000 nM.
In the case of `CCOC(=O)/C(=C/OC1OC(=O)C(C)=C1C)n1nc(F)c2ccccc21` (stereo not shown) [Compound I-51-Z, ethyl (Z)-3-[(3,4-dimethyl-5-oxo-2H-furan-2-yl)oxy]-2-(3-fluoroindazol-1-yl)prop-2-enoate], the IC50 was less than 3000 nM.
For the compound `CCOC(=O)/C(=C/OC1C=C(C)C(=O)O1)n1cnc2ccccc21` (stereo not shown) [Compound I-56-Z, ethyl (Z)-2-(benzimidazol-1-yl)-3-[(4-methyl-5-oxo-2H-furan-2-yl)oxy]prop-2-enoate], the IC50 was less than 3000 nM.
With `CCOC(=O)/C(=C/OC1OC(=O)C(C)=C1C)n1cnc2ccccc21` (stereo not shown) [Compound I-57-Z, ethyl (Z)-2-(benzimidazol-1-yl)-3-[(3,4-dimethyl-5-oxo-2H-furan-2-yl)oxy]prop-2-enoate], the IC50 is less than 3000 nM.
